For orientation: % inhibition means how much of the control response was suppressed. A high value points to a response far below the control. As usually defined, the inhibition is the relative decrease from the control value, in per cent.

SMILES strings stand for the structures. Counter-ions that a name gives are not always drawn. Like-named read-outs stand apart in the source and are kept apart here.

The target in the test is T1, Rat brain protein farnesyltransferase (Rattus norvegicus, UniProt Q02293+Q04631).
T1 construct: Rat brain protein farnesyltransferase activity is measured; from tissue; host or cells: rat brain
The experiment in a line: % inhibition of farnesylation, scintillation proximity assay with biotin-K Ras B fragment. It counts as biochemical. The note with it: for % inhibition at 1 × 10^-6 M / inhibition at 1 µM: Table 2, 1 × 10^-6 M; for inhibition at 1 µM: read-out: % inhibition at 1 × 10^-6 M; for inhibition at 0.1 µM: read-out: % inhibition at 1 × 10^-7 M. An outline of the steps:
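Scintillation proximity read-out of farnesylation, using a biotinylated K Ras B fragment (0.1 mM final) in place of biotin-lamin. Enzyme purified from rat brain; results given as % inhibition.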
Background: Scintillation proximity formats need no separation of bound from free tracer.

T1 sequence (Q02293 whole entry, one chain of several): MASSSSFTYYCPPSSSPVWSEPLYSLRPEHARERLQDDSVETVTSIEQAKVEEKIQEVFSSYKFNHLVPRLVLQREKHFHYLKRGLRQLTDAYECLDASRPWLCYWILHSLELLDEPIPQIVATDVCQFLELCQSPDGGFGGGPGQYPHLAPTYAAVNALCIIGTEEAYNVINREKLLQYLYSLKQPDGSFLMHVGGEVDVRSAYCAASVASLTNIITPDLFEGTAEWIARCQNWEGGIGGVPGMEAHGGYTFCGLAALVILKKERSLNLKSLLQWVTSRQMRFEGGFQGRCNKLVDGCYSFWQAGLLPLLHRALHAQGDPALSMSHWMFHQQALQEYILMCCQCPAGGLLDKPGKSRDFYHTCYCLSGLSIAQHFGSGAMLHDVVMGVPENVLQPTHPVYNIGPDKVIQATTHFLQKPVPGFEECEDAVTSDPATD

As for `CSCC[C@H](NC(=O)c1ccc(NCC(CO)(Cc2ccccc2)Cc2ccccc2)cc1-c1ccccc1C)C(=O)O` [Example 475], the “% inhibition at 1 × 10^-6 M” value is 21%.

`CSCC[C@H](NC(=O)c1ccc(NCC(CO)Cc2ccccc2)cc1-c1ccccc1C)C(=O)O` (stereo partly drawn) [Example 476]: the “% inhibition at 1 × 10^-6 M” value came out at 91%.

Take `CSCC[C@H](NC(=O)c1ccc(CCCCC2CCCCC2)cc1-c1ccccc1C)C(=O)O` [Example 478]: the “% inhibition at 1 × 10^-6 M” value is 98%.

As for `CSCC[C@H](NC(=O)c1ccc(NCC(CO)CC2CCCCC2)cc1-c1ccccc1C)C(=O)O` (stereo partly drawn) [Example 479], the “% inhibition at 1 × 10^-6 M” value worked out at 95%.

As to `CSCC[C@H](NC(=O)c1ccc(C=CCCCc2ccccc2)cc1-c1ccccc1C)C(=O)O` [Example 480], the “% inhibition at 1 × 10^-6 M” value was found to be 87%.

Regarding `CSCC[C@H](NC(=O)c1ccc(NC(=O)c2cnccc2C(F)(F)F)cc1-c1ccccc1C)C(=O)O` [Example 481], the “% inhibition at 1 × 10^-6 M” value is 95%.

With `CSCC[C@H](NC(=O)c1ccc(C#Cc2cncnc2)cc1-c1ccccc1C)C(=O)[O-].[Li+]` [Example 493], the “% inhibition at 1 × 10^-7 M” value (Table 3, 1 × 10^-7 M) is listed as 51%.

As for `CSCC[C@H](NC(=O)c1ccc(/C=C/c2cncnc2)cc1-c1ccccc1C)C(=O)O` [Example 494], the “% inhibition at 1 × 10^-6 M” value is 96%.

With `CSCC[C@H](NC(=O)c1ccc(/C=C/c2cnccn2)cc1-c1ccccc1C)C(=O)O` [Example 495], the “% inhibition at 1 × 10^-6 M” value worked out at 95%.

`CSCC[C@H](NC(=O)c1ccc(C=CCc2ccc3ccccc3c2)cc1-c1ccccc1C)C(=O)O` [Example 496]: the “% inhibition at 1 × 10^-6 M” value turned out to be 93%.

Turning to `CSCC[C@H](NC(=O)c1ccc(Sc2ccc3ccccc3c2)cc1-c1ccccc1C)C(=O)O` [Example 497, N-[4-(naphth-2-ylthio)-2-(2-methylphenyl)benzoyl]methionine], the inhibition at 1 µM stood at 94%.

Regarding `CSCC[C@H](NC(=O)c1ccc(SCCc2ccccc2)cc1-c1ccccc1C)C(=O)O` [Example 498, N-[4-(2-phenylethylthio)-2-(2-methylphenyl)benzoyl]methionine], the inhibition at 1 µM turned out to be 98%.

Consider `CSCC[C@H](NC(=O)c1ccc(NCCO)cc1-c1ccccc1)C(=O)O` [Example 502], for which the “% inhibition at 1 × 10^-6 M” value was found to be 24%.

On to `CSCC[C@H](NC(=O)c1ccc(NC(=O)[C@@H](N)COCc2ccccc2)cc1-c1ccccc1)C(=O)O` [Example 503], for which the “% inhibition at 1 × 10^-6 M” value was 57%.

`CSCC[C@H](NC(=O)c1ccc(CN(Cc2ccccc2)Cc2ccco2)cc1-c1ccccc1C)C(=O)O` [Example 504]: the “% inhibition at 1 × 10^-6 M” value was found to be 90%.

`CSCC[C@H](NC(=O)c1ccc(CN(CCO)c2ccccc2)cc1-c1ccccc1)C(=O)O` [Example 505]: the “% inhibition at 1 × 10^-6 M” value stood at 72%.

`CSCC[C@H](NC(=O)c1ccc(CN(CCc2ccccc2)c2ccccc2)cc1-c1ccccc1C)C(=O)O` [Example 507]: the “% inhibition at 1 × 10^-6 M” value is 96%.

Regarding `CSCC[C@H](NC(=O)c1ccc(CN(CCCc2ccccc2)c2ccccc2)cc1-c1ccccc1C)C(=O)O` [Example 508], the “% inhibition at 1 × 10^-6 M” value amounted to 95%.

In the case of `CSCC[C@H](NC(=O)c1ccc(CN(CC(c2ccccc2)c2ccccc2)c2ccccc2)cc1-c1ccccc1C)C(=O)O` [Example 509], the “% inhibition at 1 × 10^-6 M” value stood at 77%.

For `CSCC[C@H](NC(=O)c1ccc(CN(CC23CC4CC(CC(C4)C2)C3)c2ccccc2)cc1-c1ccccc1C)C(=O)O` [Example 510], the “% inhibition at 1 × 10^-6 M” value is listed as 84%.

As to `CSCC[C@H](NC(=O)c1ccc(CN(CCC23CC4CC(CC(C4)C2)C3)c2ccccc2)cc1-c1ccccc1C)C(=O)O` [Example 511], the “% inhibition at 1 × 10^-7 M” value (Table 3, 1 × 10^-7 M) came to 82%.

Regarding `CSCC[C@H](NC(=O)c1ccc(CN(Cc2ccccc2)Cc2ccccc2)cc1-c1ccccc1C)C(=O)O` [Example 512], the “% inhibition at 1 × 10^-6 M” value was 94%.

Regarding `CSCC[C@H](NC(=O)c1ccc(CN(CCc2ccccc2)Cc2ccccc2)cc1-c1ccccc1C)C(=O)O` [Example 513], the “% inhibition at 1 × 10^-6 M” value was 96%.

Regarding `CSCC[C@H](NC(=O)c1ccc(CN(Cc2ccccc2)Cc2cccc(Oc3ccccc3)c2)cc1-c1ccccc1C)C(=O)O` [Example 514], the “% inhibition at 1 × 10^-6 M” value was 94%.

As for `CSCC[C@H](NC(=O)c1ccc(CN(CCO)Cc2ccccc2)cc1-c1ccccc1)C(=O)O` [Example 515], the “% inhibition at 1 × 10^-6 M” value is 72%.

For `CSCC[C@H](NC(=O)c1ccc(CN(C)CCc2ccccc2)cc1-c1ccccc1C)C(=O)O` [Example 516], the “% inhibition at 1 × 10^-6 M” value was determined as 95%.

Turning to `CSCC[C@H](NC(=O)c1ccc(CN(CCc2ccccc2)c2cncnc2)cc1-c1ccccc1C)C(=O)O` [Example 518], where the note is “Table 4, 1 × 10^-8 M”, the “% inhibition at 1 × 10^-8 M” value came to 90%.

Consider `CSCC[C@H](NC(=O)c1ccc(CNCCc2c[nH]c3ccccc23)cc1-c1ccccc1C)C(=O)O` [Example 519], for which the “% inhibition at 1 × 10^-7 M” value (Table 3, 1 × 10^-7 M) turned out to be 89%.

Take `CSCC[C@H](NC(=O)c1ccc(CN[C@H](CO)C2CCCCC2)cc1-c1ccccc1C)C(=O)O` [Example 520]: for the setting “Table 3, 1 × 10^-7 M”, the “% inhibition at 1 × 10^-7 M” value worked out at 97%.

Take `C=C(C)C1CC=C(COCc2ccc(C(=O)N[C@@H](CCSC)C(=O)O)c(-c3ccccc3C)c2)CC1` (stereo partly drawn) [Example 521, N-[4-(4-isoprop-2-enylcyclohexen-1-yl)methoxymethyl-2-(2-methylphenyl)benzoyl]methionine lithium salt]: for the setting “Table 3, 1 × 10^-7 M”, the inhibition at 0.1 µM is 94%.

`CSCC[C@H](NC(=O)c1ccc(COC(Cc2ccccc2)Cc2ccccc2)cc1-c1ccccc1C)C(=O)O` [Example 522, N-[4-(1,3-diphenylpropan-2-yl)oxymethyl-2-(2-methylphenyl)benzoyl]methionine lithium salt]: the inhibition at 0.1 µM stood at 93%.

On to `CSCC[C@H](NC(=O)c1ccc(CNC(Cc2ccccc2)Cc2ccccc2)cc1-c1ccccc1C)C(=O)O` [Example 523], for which the “% inhibition at 1 × 10^-7 M” value (Table 3, 1 × 10^-7 M) amounted to 97%.

With `CSCC[C@H](NC(=O)c1ccc(CNC(CC2CCCCC2)CC2CCCCC2)cc1-c1ccccc1C)C(=O)O` [Example 524], the “% inhibition at 1 × 10^-7 M” value (Table 3, 1 × 10^-7 M) amounted to 99%.

Regarding `CCOC[C@H](CC1CCCCC1)OCc1ccc(C(=O)N[C@@H](CCSC)C(=O)O)c(-c2ccccc2C)c1` [Example 525, N-[4-(3-Cyclohexyl-1-ethoxypropan-2-yl)oxymethyl-2-(2-methylphenyl)benzoyl]methionine lithium salt], the inhibition at 1 µM was found to be 99%.

Regarding `CSCC[C@H](NC(=O)c1ccc(CN[C@H](/C=C\CC(C)C)CC2CCCCC2)cc1-c1ccccc1C)C(=O)O` [Example 526], the “% inhibition at 1 × 10^-7 M” value (Table 3, 1 × 10^-7 M) was determined as 96%.

In the case of `CSCC[C@H](NC(=O)c1ccc(CN[C@H](CCCC(C)C)CC2CCCCC2)cc1-c1ccccc1C)C(=O)O` [Example 527], the “% inhibition at 1 × 10^-7 M” value (Table 3, 1 × 10^-7 M) is reported as 97%.

For the compound `CSCC[C@H](NC(=O)c1ccc(CNC(CC2CCCCC2)C(O)C(O)CC(C)C)cc1-c1ccccc1C)C(=O)O` (stereo partly drawn) [Example 528], the “% inhibition at 1 × 10^-6 M” value was 99%.

As to `CSCC[C@H](NC(=O)c1ccc(COCc2ccoc2)cc1-c1ccccc1C)C(=O)O` [Example 530, N-[4-(furan-3-ylmethoxymethyl)-2-(2-methylphenyl)benzoyl]methionine litihium salt], the inhibition at 1 µM is 94%.

Consider `CSCC[C@H](NC(=O)c1ccc(COCCc2ccco2)cc1-c1ccccc1C)C(=O)O` [Example 531, N-[4-(2-furan-2-ylethoxymethyl)-2-(2-methylphenyl)benzoyl]methionine lithium salt], for which the inhibition at 0.1 µM was found to be 74%.

The values above are taken from patent US6204293A, “Inhibitors of protein isoprenyl transferases” (University of Pittsburgh, priority 1998, dated 2001).
